Reference: patent US5059624A, “Guanidine derivatives having hypotensive activity, composition containing them and process for obtaining them” (Consiglio Nazionale Delle Ricerche, priority 1988, dated 1991)
Read-outs that look alike come from different tables or passages of the source.

System: male Wistar rats
Details: for cardiovascular and respiratory effects (in words): i.v.
[1] = doses higher than 50-800 μg/kg i.v., rat

Method: In order to check its activity, diguanido-II was dissolved in a 0.9 % sodium chloride solution and administered through "rapid" i.v. route in male Wistar rats, under general anaesthesia obtained by means of 10% ethyl urethan (i ml/hg).
The active ingredients called guanido-III, -IV, -V, as well as agmatine and galegine, were also tested, after having been administered through "rapid" i.v. route in male Wistar rats (weighing average 280±5 g) under general anaesthesia obtained by means of 10% ethyl uretan (1 ml/hg, i.p.). The general experimental conditions were exactly the same as previously mentioned for guanido-I and diguanido-II, so that the cardiovascular and respiratory effects could be compared.
The parameters measured are as follows: systolic and diastolic systemic arterial pressure (AP), heart rate (HR), maximum rate of increase in the left ventricular isovolumetric pressure (dp/dt), respiratory frequency (RF) and tidal volume (TV). The doses (in μg/kg body weight, referred to the active substance) varied from 50 μg/kg to 6,400 μg/kg (ratio=2.0); in some cases higher does have been employed.

## CC(C)=CCNC(=N)NCCCCN [guanido-III, prenylagmatine]
200 μg/kg i.v.
  Δ AP DIAST: -2 ± 0.2 mmHg
  Δ AP SYST: -2 ± 0.3 mmHg
  Δ HR: 0 beats/min
  Δ RF: +7 ± 4%
  Δ TV: +9 ± 2%
  Δ dp/dt: +214 ± 20 mmHg/sec
400 μg/kg i.v.
  Δ AP DIAST: -2 ± 0.6 mmHg
  Δ AP SYST: -3.5 ± 1.5 mmHg
  Δ HR: 0 beats/min
  Δ RF: +7 ± 3%
  Δ TV: +17 ± 6%
  Δ dp/dt: +321 ± 17 mmHg/sec
800 μg/kg i.v.
  Δ AP DIAST: -13 ± 4 mmHg
  Δ AP SYST: -11 ± 1 mmHg
  Δ HR: -15 ± 3 beats/min
  Δ RF: +10 ± 4%
  Δ TV: +33 ± 9%
  Δ dp/dt: +1356 ± 428 mmHg/sec
1600 μg/kg i.v.
  Δ AP DIAST: -21 ± 4 mmHg
  Δ AP SYST: -13 ± 2 mmHg
  Δ HR: -23 ± 10 beats/min
  Δ RF: +18 ± 3%
  Δ TV: +21 ± 7%
  Δ dp/dt: +2157 ± 655 mmHg/sec
3200 μg/kg i.v.
  Δ AP DIAST: -36 ± 6 mmHg
  Δ AP SYST: -36 ± 7 mmHg
  Δ HR: -26 ± 8 beats/min
  Δ RF: -42 ± 9%
  Δ TV: -73 ± 18%
6400 μg/kg i.v.
  Δ AP DIAST: -85 ± 3 mmHg
  Δ AP SYST: -112 ± 3 mmHg
  Δ HR: -310 ± 25 beats/min
  Δ RF: -100%
  Δ TV: -100%
  Δ dp/dt: -5422 ± 514 mmHg/sec
rat
  cardiovascular and respiratory effects (in words): systolic and diastolic arterial hypotension (well evident starting from the dose of 800 μg/kg), bradycardia, increase of dp/dt (up to the dose of 3,200 μg/kg). increase of RF and TV (up to the dose of 1,600 μg/kg)
rat, in vivo, iv
  death of the tested animals: caused death of the tested animals

## NCCCCN=C(N)N [agmatine, 4-(aminobutyl)guanidine, reference compound]
200 μg/kg i.v.
  Δ AP DIAST: -4 ± 1 mmHg
  Δ AP SYST: -5 ± 2 mmHg
  Δ HR: 0 beats/min
  Δ RF: +9 ± 3%
  Δ TV: +3 ± 1%
  Δ dp/dt: +300 ± 89 mmHg/sec
400 μg/kg i.v.
  Δ AP DIAST: -6 ± 2 mmHg
  Δ AP SYST: -6 ± 1 mmHg
  Δ HR: 0 beats/min
  Δ RF: +11 ± 4%
  Δ TV: +12 ± 4%
  Δ dp/dt: +334 ± 54 mmHg/sec
800 μg/kg i.v.
  Δ AP DIAST: -8 ± 2 mmHg
  Δ AP SYST: -8 ± 2 mmHg
  Δ HR: 0 beats/min
  Δ RF: +12 ± 4%
  Δ TV: +14 ± 2%
  Δ dp/dt: +947 ± 131 mmHg/sec
1600 μg/kg i.v.
  Δ AP DIAST: -10 ± 1 mmHg
  Δ AP SYST: -9 ± 3 mmHg
  Δ HR: 0 beats/min
  Δ RF: +11 ± 2%
  Δ TV: +25 ± 5%
  Δ dp/dt: +981 ± 94 mmHg/sec
3200 μg/kg i.v.
  Δ AP DIAST: -11 ± 2 mmHg
  Δ AP SYST: -9 ± 2 mmHg
  Δ HR: -7 ± 2 beats/min
  Δ RF: +13 ± 4%
  Δ TV: +27 ± 4%
  Δ dp/dt: +1356 ± 164 mmHg/sec
6400 μg/kg i.v.
  Δ AP DIAST: -13 ± 4 mmHg
  Δ AP SYST: -11 ± 4 mmHg
  Δ HR: -13 ± 5 beats/min
  Δ RF: +13 ± 5%
  Δ TV: +30 ± 7%
  Δ dp/dt: +3351 ± 417 mmHg/sec
12800 μg/kg i.v.
  Δ AP DIAST: -18 ± 5 mmHg
  Δ AP SYST: -12 ± 2 mmHg
  Δ HR: -17 ± 2 beats/min
  Δ RF: +15 ± 2%
  Δ TV: +31 ± 7%
  Δ dp/dt: +2568 ± 432 mmHg/sec
25600 μg/kg i.v.
  Δ AP DIAST: -23 ± 4 mmHg
  Δ AP SYST: -12 ± 3 mmHg
  Δ HR: -17 ± 7 beats/min
  Δ RF: +24 ± 4%
  Δ TV: +33 ± 9%
  Δ dp/dt: +3565 ± 813 mmHg/sec
51200 μg/kg i.v.
  Δ AP DIAST: -34 ± 6 mmHg
  Δ AP SYST: -15 ± 1 mmHg
  Δ HR: -22 ± 1 beats/min
  Δ RF: +31 ± 7%
  Δ TV: +35 ± 6%
  Δ dp/dt: +5491 ± 869 mmHg/sec
rat
  cardiovascular and respiratory effects (in words): analogous to those induced by guanido-V., moreover, said active ingredient caused a constant increase in dp/dt, RF and TV

## N=C(N)N [guanidine]
50-800 μg/kg i.v., rat
  alterations of RF, TV and HR (in words): did not cause in the rats under test significative alterations of RF, TV and HR
  dp/dt (in words): a little reduction of dp/dt
  hypotensive responses (in words): slight and not significant hypotensive responses
6,400-1,2600 μg/kg i.v., rat
  the other parameters (in words): slight changes
[1]
  RF and TV (in words): reduction of RF and TV
  cardiac inotropism (dp/dt) (in words): a little increase in cardiac inotropism (dp/dt)
  systemic arterial pressure (in words): biphasic responses of a slight entity (hypo-hypertension)

## CC(C)=CCN=C(N)N [galegine, prenylguanidine, reference compound]
50 μg/kg i.v.
  Δ AP DIAST: -19 ± 3 mmHg
  Δ AP SYST: -18 ± 1 mmHg
  Δ HR: -32 ± 6 beats/min
  Δ RF: +38 ± 4%
  Δ TV: +43 ± 4%
  Δ dp/dt: +1498 ± 131 mmHg/sec
100 μg/kg i.v.
  Δ AP DIAST: -28 ± 6 mmHg
  Δ AP SYST: -22 ± 2 mmHg
  Δ HR: -46 ± 7 beats/min
  Δ RF: +68 ± 4%
  Δ TV: +63 ± 5%
  Δ dp/dt: +1712 ± 90 mmHg/sec
200 μg/kg i.v.
  Δ AP DIAST: -29 ± 5 mmHg
  Δ AP SYST: -23 ± 5 mmHg
  Δ HR: -94 ± 6 beats/min
  Δ RF: +69 ± 7%
  Δ TV: +64 ± 7%
  Δ dp/dt: +1797 ± 178 mmHg/sec
400 μg/kg i.v.
  Δ AP DIAST: -26 ± 4 mmHg
  Δ AP SYST: -25 ± 6 mmHg
  Δ HR: -107 ± 4 beats/min
  Δ RF: +76 ± 9%
  Δ TV: +87 ± 9%
  Δ dp/dt: +2568 ± 314 mmHg/sec
800 μg/kg i.v.
  Δ AP DIAST: -26 ± 4 mmHg
  Δ AP SYST: -27 ± 4 mmHg
  Δ HR: -106 ± 11 beats/min
  Δ RF: +70 ± 8%
  Δ TV: +31 ± 3%
  Δ dp/dt: +1926 ± 223 mmHg/sec
1600 μg/kg i.v.
  Δ AP DIAST: -25 ± 4 mmHg
  Δ AP SYST: -22 ± 4 mmHg
  Δ HR: -85 ± 5 beats/min
  Δ RF: +133 ± 14%
  Δ TV: +55 ± 6%
  Δ dp/dt: +1724 ± 104 mmHg/sec
3200 μg/kg i.v.
  Δ AP DIAST: -36 ± 4 mmHg
  Δ AP SYST: -22 ± 3 mmHg
  Δ HR: -98 ± 16 beats/min
  Δ RF: +85 ± 6%
  Δ TV: +40 ± 7%
  Δ dp/dt: +2996 ± 202 mmHg/sec
6400 μg/kg i.v.
  Δ AP DIAST: -36 ± 2 mmHg
  Δ AP SYST: -18 ± 4 mmHg
  Δ HR: -42 ± 4 beats/min
  Δ RF: +37 ± 11%
  Δ TV: +29 ± 8%
  Δ dp/dt: +4494 ± 371 mmHg/sec
12800 μg/kg i.v.
  Δ AP DIAST: -42 ± 3 mmHg
  Δ AP SYST: -22 ± 2.5 mmHg
  Δ HR: -15 ± 7 beats/min
  Δ RF: +23 ± 7%
  Δ TV: +25 ± 5%
  Δ dp/dt: +6420 ± 417 mmHg/sec
25600 μg/kg i.v.
  Δ AP DIAST: -30 ± 9 mmHg
  Δ AP SYST: -19 ± 3 mmHg
  Δ HR: -21 ± 6 beats/min
  Δ RF: -34 ± 12%
  Δ TV: -57 ± 8%
  Δ dp/dt: +6471 ± 274 mmHg/sec
51200 μg/kg i.v.
  Δ AP DIAST: -50 ± 7 mmHg
  Δ AP SYST: -80 ± 8 mmHg
  Δ HR: -298 ± 19 beats/min
  Δ RF: -100%
  Δ TV: -100%
  Δ dp/dt: -4708 ± 312 mmHg/sec
25,600 and 51,200 ug/kg i.v., rat
  death of the tested animals at extremely high doses: primary respiratory depression (reduction of RF and TV) and a subsequent arterial hypotension. bradycardia and decrease in the cardiac inotropism (dp/dt), with death of the tested animals
